This note sets out measurements from patent US5137889A, “Dihydropyridine derivatives and process for preparing the same” (Otsuka Pharmaceutical Co., Ltd., priority 1983, dated 1992).

Read-outs that look alike come from different tables or passages of the source.

Experiment [1] addresses T1, Calmodulin-cyclic-AMP phosphodiesterase (Bos taurus, UniProt P62157).
T1 construct: tissue Amano & Co. (calmodulin only); host or cells: phosphodiesterase: bovine heart, partially purified; calmodulin: bovine brain
As to the kind of experiment: Calmodulin-cyclic-AMP phosphodiesterase inhibitory activity (presence of calmodulin). Type of experiment: biochemical, bovine. The source says:
(1) Calmodulin: A calmodulin product manufactured by Amano & Co., which was isolated from the brain of bovine, and purified so as to be considered as a single substance with respect to SDS-page (polyacrylamide gel electrophoresis) method.
(§1) (2) Calmodulin-dependent cyclic-AMP phosphodiesterase (EC 3.1.4.17): An enzyme substance isolated from the heart of bovine and purified partially by a method of modified version of the disclosure in H. C. Ho, T. S. Teo, et al.: "Biochim. Biophys. Acta", 429, 461 (1976).
(§2) (3) 5'-Nucleotidase (EC 3.1.3.5): Grade IV substance (isolated from Crotalus adamanteus venom) manufactured by Sigma & Co.
(§3) (4) Others: Remainder of the reagents used in the test were those of reagent grade chemicals manufactured by Wako Pure-Chemical Industries, Ltd.
(§4) Calmodulin inhibitory activity of each of the test compounds was measured by a method of modified version of the disclosure in T. S. Teo and T. H. Wang: "J. Bio. Chem.", 248, 588 (1973).
(2) Calmodulin: One unit thereof stimulates 0.015 activated unit of cyclic-AMP phosphodiesterase to 50% of the maximum activity of the enzyme.
(§5) (3) 5'-Nucleotidase: One unit thereof hydrolyzes 1.0 micromole of inorganic phosphorus from adnosine 5'-monophosphate per minute at pH 9.0 at 37° C.
(1) Calmodulin-cyclic-AMP phosphodiesterase inhibitory activity:
40 mM of Imidazol, 20 mM of MgCl2, 20 mM of CaC12, 0.008 unit of cyclic-AMP phosphodiesterase, 1.0 unit of calmodulin, 0.2 unit of 5'-nucleotidase and 1.0 ml of 10 mM-tris(hydroxymethyl)aminomethane/HCl buffer solution (pH 7.0) containing 0.5 mM of cyclic-AMP were mixed together, and reacted at 30° C. for 30 minutes. Each of the test compounds was dissolved in methanol or N,N-dimethylformamide as the solvent, provided that the quantity of the solvent was not exceed 2% of the total amount of the mixture. After the reaction was completed, the reaction mixture was ice-cooled, and 0.5 ml each of aqueous solutions of 16.5%-trichloroacetic acid, 1%-thiourea, 3%-ammonium ferrous sulfate were respectively added to the reaction mixture. Further, 0.15 ml of 4.4%-ammonium molibdate solution was added to the mixture and the whole of the mixture was stirred, and was centrifuged at 3,000 r.p.m. for 10 minutes. Then, the centrifuged mixture was allowed to stand at a room temperature for 20 minutes. The OD660 nm (optical density at 660 nm) was measured.

The target of experiment [2] is T2, Cyclic-AMP phosphodiesterase (Bos taurus, UniProt P14100).
T2 construct: from tissue; host or cells: bovine heart, partially purified
T2 sequence (P14100 1-514 isoform P14100-2): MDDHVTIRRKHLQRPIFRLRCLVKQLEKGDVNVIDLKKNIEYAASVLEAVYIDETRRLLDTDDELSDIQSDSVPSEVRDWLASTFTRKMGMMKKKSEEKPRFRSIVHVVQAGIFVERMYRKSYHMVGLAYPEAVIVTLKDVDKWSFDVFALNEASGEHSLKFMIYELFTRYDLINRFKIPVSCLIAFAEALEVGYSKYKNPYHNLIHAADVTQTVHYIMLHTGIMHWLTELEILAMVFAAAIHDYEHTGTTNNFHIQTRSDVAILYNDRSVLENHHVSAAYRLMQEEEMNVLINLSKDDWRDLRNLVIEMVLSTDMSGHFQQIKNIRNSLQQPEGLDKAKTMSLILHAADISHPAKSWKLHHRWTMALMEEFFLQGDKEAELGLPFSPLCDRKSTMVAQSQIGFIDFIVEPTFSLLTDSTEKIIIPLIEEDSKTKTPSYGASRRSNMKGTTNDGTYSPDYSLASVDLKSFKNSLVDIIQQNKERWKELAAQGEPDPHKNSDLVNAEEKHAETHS
As to the kind of experiment: Cyclic AMP phosphodiesterase inhibitory activity (absence of calmodulin, EGTA in place of CaCl2). Type of experiment: biochemical, bovine. Particulars: 1 mM EGTA in place of CaCl2; 3 hours.
Excerpt: as §1, §2, §3, §4, §5
(2) Cyclic AMP phosphodiesterase inhibitory activity:
The reaction was conducted by a method similar to that described in (1) as mentioned above, except that 1 mM of EGTA [ethylene glycol-bis(β-amino ethyl ether)-N,N-tetraacetic acid] was used in place of 20 mM of CaCl2. The reaction was conducted for 3 hours.

Experiment [3] has as its system SHR-rats (spontaneously hypertensive rats). The following applies: 30 mg/kg p.o.
Description: Systolic blood pressures and heart beat of SHR-rats (spontaneously hypertensive rats) were determined by a "tail cuff method". Thus the test animal was placed in a thermostat chamber (Type: FR-12RS, manufactured by Isuze & Co.) and was warmed at 40° C. for 15 minutes so as to vasodilate the tail arteria, the systolic blood pressures were measured by an electro sphygmomanometer (Type: PE-300, manufactured by Narco-Biosystems, Inc.) and recorded by an ink-writing recorder (Type: RECTI-HORIZ 8s, manufactured by San-Ei Instrument & Co.). The experiments were conducted under non-anesthetized and semi-confinement conditions. The test compound was orally administered forcedly by using a sonde for oral administration. The test compound was suspended in 0.15%-gum arabic powder aqueous solution so as to make the quantity of the test compound to 2.5 ml/kg. The test animal was not fasted, and the systolic blood pressures (mm-Hg) were measured before the administration (hereinafter referred to as "PRE") and after the administration (8, 24, 30, 48, 54 and 72 hours after the administration) of the test compound. The data of systolic blood pressure measured before the administration are shown in absolute value of mmHg, and the data measured after the administration are shown in the differences from the absolute values.
[4] abbreviates: with calmodulin and CaCl2, pH 7.0, 30° C., 30 minutes, read-out: Calmodulin-cyclic-AMP phosphodiesterase IC50 (converted).

Consider `COC(=O)C1=C(C)NC(C)=C(C(=O)OC/C=C/c2ccc(O)cc2)C1c1ccccc1C(F)(F)F` (centres unmarked) [Example 14], for which the IC50 – broadly, the concentration needed to halve the response being measured – in experiment [1] (setting [4]) was 12.8 µM.
As to `COC(=O)C1=C(C)NC(C)=C(C(=O)OC/C=C/c2ccccc2)C1c1cccc([N+](=O)[O-])c1` (centres unmarked) [Test Compound 2, Methyl 3-phenyl-2(E)-propenyl 1,4-dihydro-2,6-dimethyl-4-(3-nitrophenyl)pyridine-3,5-dicarboxylate], the IC50 in experiment [1] (setting [4]) was 5.57 µM.
For `COC(=O)C1=C(C)NC(C)=C(C(=O)OC/C=C/C=C/c2ccc(O)cc2)C1c1cccc([N+](=O)[O-])c1` (centres unmarked) [Test Compound 3, Methyl 5-(4-hydroxyphenyl)-2(E),4(E)-pentadienyl 1,4-dihydro-2,6-dimethyl-4-(3-nitrophenyl)-pyridine-3,5-dicarboxylate], the IC50 in experiment [1] (setting [4]) is 1.73 µM.
On to `COC(=O)C1=C(C)NC(C)=C(C(=O)OC/C=C/c2ccc(O)c(OC)c2)C1c1cccc([N+](=O)[O-])c1` (centres unmarked) [Test Compound 7, Methyl 3-(3-methoxy-4-hydroxyphenyl)-2(E)-propenyl 1,4-dihydro-2,6-dimethyl-4-(3-nitrophenyl)pyridine-3,5-dicarboxylate], for which the IC50 in experiment [1] (setting [4]) is 10.5 µM.
`COC(=O)C1=C(C)NC(C)=C(C(=O)OC/C=C/c2ccc(OC)cc2)C1c1cccc([N+](=O)[O-])c1` (centres unmarked) [Test Compound 8, Methyl 3-(4-methoxyphenyl)-2(E)-propenyl 1,4-dihydro-2,6-dimethyl-4-(3-nitrophenyl)-pyridine-3,5-dihydrocarboxylate]: in experiment [1] (setting [4]), the IC50 is 5.64 µM.
As to `COC(=O)C1=C(C)NC(C)=C(C(=O)OC/C=C/c2nnnn2C)C1c1cccc([N+](=O)[O-])c1` (centres unmarked) [Test Compound 9, Methyl 3-(1-methyl-1,2,3,4-tetrazol-5-yl)-2(E)-propenyl 1,4-dihydro-2,6-dimethyl-4-(3-nitrophenyl)pyridine-3,5-dicarboxylate], the IC50 is 11.7 µM in experiment [1] (setting [4]) and 79.2 µM in experiment [2].
Regarding `COC(=O)C1=C(C)NC(C)=C(C(=O)OC/C=C/c2ccco2)C1c1cccc([N+](=O)[O-])c1` (centres unmarked) [Test Compound 10, Methyl 3-furyl-2(E)-propenyl 1,4-dihydro-2,6-dimethyl-4-(3-nitrophenyl)pyridine-3,5-dicarboxylate], the results for the IC50 in experiment [1] (setting [4]) and in experiment [2] were 3.54 µM and over 228 µM, respectively.
As to `COC(=O)C1=C(C)NC(C)=C(C(=O)OC/C=C/c2ccc(O)c(Cl)c2)C1c1cccc([N+](=O)[O-])c1` (centres unmarked) [Test Compound 11, Methyl 3-(3-chloro-4-hydroxyphenyl)-2(E)-propenyl 1,4-dihydro-2,6-dimethyl-4-(3-nitrophenyl)pyridine-3,5-dicarboxylate], the IC50 in experiment [1] (setting [4]) is 10.6 µM; in experiment [2] it was 200 µM.
For the compound `COC(=O)C1=C(C)NC(C)=C(C(=O)OC/C=C/c2ccccc2O)C1c1cccc([N+](=O)[O-])c1` (centres unmarked) [Test Compound 13, Methyl 3-(2-hydroxyphenyl)-2(E)-propenyl 1,4-dihydro-2,6-dimethyl-4-(3-nitrophenyl)-pyridine-3,5-dicarboxylate], the IC50 in experiment [1] (setting [4]) is 3.55 µM.
`COC(=O)C1=C(C)NC(C)=C(C(=O)OC/C=C/c2ccc(OC(C)=O)cc2)C1c1cccc([N+](=O)[O-])c1` (centres unmarked) [Test Compound 16, Methyl 3-(4-acetyloxyphenyl)-2(E)-propenyl 1,4-dihydro-2,6-dimethyl-4-(3-nitrophenyl)-pyridine-3,5-dicarboxylate]: the IC50 in experiment [1] (setting [4]) is 5.92 µM.
Turning to `COC(=O)C1=C(C)NC(C)=C(C(=O)OCCN2CC=C(c3ccc(C)cc3)CC2)C1c1cccc([N+](=O)[O-])c1` (centres unmarked) [Test Compound 17, Methyl 2-[4-(4-methylphenyl)-1,2,3,6-tetra-hydropyridyl]ethyl 1,4-dihydro-2,6-dimethyl-4-(3-nitrophenyl)pyridine-3,5-dicarboxylate], the IC50 was 10.3 µM in experiment [1] (setting [4]) and over 188 µM in experiment [2].
As to `COC(=O)C1=C(C)NC(C)=C(C(=O)OC/C=C/c2ccc(O)cc2)C1c1ccccc1` (centres unmarked) [Test Compound 18, Methyl 3-(4-hydroxyphenyl)-2(E)-propenyl 1,4-dihydro-2,6-dimethyl-4-phenylpyridine-3,5-dicarboxylate], in experiment [1] (setting [4]), the IC50 is 16.2 µM.
Regarding `COC(=O)C1=C(C)NC(C)=C(C(=O)OC/C=C/c2ccc(O)cc2)C1c1ccccc1C` (centres unmarked) [Test Compound 19, Methyl 3-(4-hydroxyphenyl)-2(E)-propenyl 1,4-dihydro-2,6-dimethyl-4-(2-methylphenyl)-pyridine-3,5-dicarboxylate], the IC50 in experiment [1] (setting [4]) was 13.4 µM.
As for `COC(=O)C1=C(C)NC(C)=C(C(=O)OC/C=C/c2ccc(O)cc2)C1c1ccc(OC)c(OC)c1` (centres unmarked) [Test Compound 20, Methyl 3-(4-hydroxyphenyl)-2(E)-propenyl 1,4-dihydro-2,6-dimethyl-4-(3,4-dimethoxy-phenyl)pyridine-3,5-dicarboxylate], the figures for the IC50 in experiment [1] (setting [4]) and in experiment [2] were 6.67 µM and 62.6 µM, respectively.
`COC(=O)C1=C(C)NC(COC/C=C/c2ccc(O)cc2)=C(C(=O)OC)C1c1cccc([N+](=O)[O-])c1` (centres unmarked) [Test Compound 21, Dimethyl 1,4-dihydro-2-[3-(4-hydroxyphenyl)-2(E)-propenyloxymethyl]-6-methyl-4-(3-nitrophenyl)pyridine-3,5-dicarboxylate]: the results for the IC50 in experiment [1] (setting [4]) and in experiment [2] were 12.1 µM and over 202 µM, respectively.
Regarding `COC(=O)C1=C(C)NC(C)=C(C(=O)OCC#Cc2cccs2)C1c1cccc([N+](=O)[O-])c1` (centres unmarked) [Test Compound 22, Methyl 3-(2-thienyl)-2-propynyl 1,4-dihydro-2,6-dimethyl-4-(3-nitrophenyl)pyridine-3,5-dicarboxylate], the figures for the IC50 in experiment [1] (setting [4]) and in experiment [2] were 2.43 µM and over 221 µM, respectively.
With `COC(=O)C1=C(C)NC(C)=C(C(=O)OCCN(C)Cc2ccccc2)C1c1cccc([N+](=O)[O-])c1` (centres unmarked) [Test Compound 26, Methyl 2-(N-methyl-N-benzylamino)ethyl 1,4-dihydro-2,6-dimethyl-4-(3-nitrophenyl)pyridine-3,5-dicarboxylate, reference compound], the IC50 in experiment [1] was 13 µM.
In the case of “methyl 3-(4-tetrahydropyranyloxyphenyl)-2(E)-propenyl 1,4-dihydro-2,6-dimethyl-4-(3-nitrophenyl)pyridine-3,5-dicarboxylate [Example 1]”, the “Blood pressure after the administration, 8 hours (difference from the absolute value before administration)” value in experiment [3] (8 hours) is given as -20.3 mm-Hg. In experiment [3], the “Blood pressure after the administration, 24 hours (difference from the absolute value before administration)” value was -41.0 mm-Hg; the “Blood pressure after the administration, 30 hours (difference from the absolute value before administration)” value is recorded as -52.0 mm-Hg; the “Blood pressure after the administration, 48 hours (difference from the absolute value before administration)” value is -26.5 mm-Hg; the “Blood pressure after the administration, 54 hours (difference from the absolute value before administration)” value was -19.8 mm-Hg. Also, in experiment [3] (listed as 6), the “Blood pressure after the administration, 24 hours (difference from the absolute value before administration)” value was “+1.8 mm-Hg”. In addition, the “Blood pressure after the administration, 72 hours (difference from the absolute value before administration)” value in experiment [3] (72 hours) was -12.5 mm-Hg.
With “methyl 3-[4-(2-tetrahydropyranyloxyphenyl)]-2-propynyl 1,4-dihydro-2,6-dimethyl-4-(3-nitrophenyl)pyridine-3,5-dicarboxylate [Example 3]”, in experiment [3], the “Blood pressure after the administration, 24 hours (difference from the absolute value before administration)” value is -31.0 mm-Hg; the “Blood pressure after the administration, 30 hours (difference from the absolute value before administration)” value is -30.8 mm-Hg; the “Blood pressure after the administration, 48 hours (difference from the absolute value before administration)” value is -15.6 mm-Hg; the “Blood pressure after the administration, 54 hours (difference from the absolute value before administration)” value is -12.6 mm-Hg.
